Laboratory results: article PMC11329928, “Design, synthesis and structure-activity relationship (SAR) studies of an unusual class of non-cationic fatty amine-tripeptide conjugates as novel synthetic antimicrobial agents” (Frontiers in Pharmacology, 2024)
Counter-ions that a name gives are not always drawn.

Key:
[1] = system: A549, IMR-90 and HeLa cells; settings: 48 h
[2] = system: S. pneumoniae R6 biofilms; assay: Killing of preformed biofilms; type: cell-based, Streptococcus pneumoniae; settings: S. pneumoniae R6 biofilm, 1 h, 37°C, plating on blood agar
Description: Biofilms were prepared as described ([Domenech and García, 2020]). Briefly, S. pneumoniae R6 cells in late exponential growth (OD550 ≈ 0.6; C + Y medium) were pelleted by centrifugation, resuspended in an equal volume of fresh medium, diluted 1/100 (4.5 × 10^6 CFU/mL), and then dispensed (200 µL per well) in 96-well flat-bottom polystyrene plates (Costar 3,595; Corning; Spain). After plate incubation at 34°C for 4.5 h without shaking, bacterial growth (non-adherent cells plus biofilm-forming cells) was determined by measuring the OD550 using a VersaMax microplate absorbance reader. The supernatant (non-adherent cells) was replaced by 200 μL of DICAM 4 (150, 300 or 600 µM) prepared by dilution in sterile water and plate incubation was continued for 1 h at 37°C. Plates were then washed and the biofilms disaggregated in sterile water for viable cell determination in Mueller-Hinton blood agar plates after overnight incubation at 37°C. For the observation of biofilms by CLSM, bacteria were grown on glass-bottomed dishes (WillCo-dish; WillCo Wells, Netherlands) and treated as above, plating 2 mL of the final inoculum per disc and then adding 0.5 mL of DICAM solution. […] Laser intensity and gain were kept the same for all images and they were analyzed using LCS software from Leica. […]

**Q.** Which IC50 [1] does the source give for CCCCCCCCCCCCCCCCCCNC(=O)[C@H](C)NC(=O)[C@H]1CCCN1C(=O)[C@H](C)N [DICAM 14, Ala- Pro -Ala-NH-C18H37 · HCl] here?
**A.** 7.3 µM

**Q.** CCCCCCCCCCCCCCCCCCNC(=O)[C@H](CCC(=O)O)NC(=O)[C@H]1CCCN1C(=O)[C@H](C)N [DICAM 4, Ala- Pro -Glu-NH-C18H37 ·HCl] was tested. Which “Cells killed in preformed biofilms at 300 μM” value [2] did it give?
**A.** ~90%
